Results published in ChEMBL document CHEMBL3045739, “Synthesis and Fungicidal Activity of 6-Alkyl Six-membered Cyclic Thiophosphates” (1997).

Experiments:
Assay type in all cases: functional
Athelia rolfsii [1] = test: Fungicidal activity against Athelia rolfsii assessed as fungal growth inhibition at 100 ppm by agar dilution method; conditions: Agroathelia rolfsii; read-out: GI
Pythium [2] = test: Fungicidal activity against Pythium sp. assessed as fungal growth inhibition at 100 ppm by agar dilution method; conditions: read-out: GI
Pythium [3] = test: Fungicidal activity against Pythium sp. assessed as fungal growth inhibition at 10 ppm by agar dilution method; conditions: read-out: GI
Athelia rolfsii [4] = test: Fungicidal activity against Athelia rolfsii assessed as fungal growth inhibition at 10 ppm by agar dilution method; conditions: Agroathelia rolfsii; read-out: GI

SMILES | inhibition of growth at 100 ppm (Athelia rolfsii [1]) | inhibition of growth at 100 ppm (Pythium [2]) | inhibition of growth at 10 ppm (Pythium [3]) | inhibition of growth at 10 ppm (Athelia rolfsii [4])
CCOP1(=S)OCc2cc(C(C)CC)ccc2O1 (stereo unspecified) | 67% | 56% |  | 
CCCCc1ccc2c(c1)COP(=S)(OCC)O2 (stereo unspecified) | 76% | 61% |  | 
CCCCc1ccc2c(c1)COP(=S)(Oc1ccc(C)cc1C(C)C)O2 (stereo unspecified) | 41% | 39% |  | 
CCCCc1ccc2c(c1)COP(=S)(Oc1cc(C)ccc1C(C)C)O2 (stereo unspecified) | 58% | 83% | 23% | 
CCCc1ccc2c(c1)COP(=S)(OCCc1ccccc1)O2 (stereo unspecified) | 48% | 48% |  | 
CCCc1ccc2c(c1)COP(=S)(Oc1cc(C)ccc1C(C)C)O2 (stereo unspecified) | 37% | 53% |  | 
CCCc1ccc2c(c1)COP(=S)(Oc1ccc(C)cc1C(C)C)O2 (stereo unspecified) | 27% | 3% |  | 
CCCc1ccc2c(c1)COP(=S)(OCC)O2 (stereo unspecified) | 84% | 56% |  | 63%
CCOP1(=S)OCc2cc(C(C)C)ccc2O1 (stereo unspecified) | 83% | 66% |  | 45%
CCOP1(=S)OCc2cc(CC)ccc2O1 (stereo unspecified) | 91% | 82% | 42% | 66%
CC(C)OP(=O)(OC(C)C)SCc1ccccc1 [IPROBENFOS] | 100% | 89% | 42% | 69%
COP1(=S)OCc2ccccc2O1 (stereo unspecified) [SALITHION] | 61% | 75% |  | 
